What was measured:
[1] = target: human CYP4F2 (Homo sapiens (Human), UniProt P78329); experiment: Inhibition test against 20-HETE producing enzyme CYP4F2 (luciferine derivative, luminescence); assay type: biochemical
Outline: (§1)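 E. coli membranes (100 μg/mL protein) expressing human enzyme, room temperature 60 min, luciferin-derivative luminescence; IC50 from % inhibition. CYP4F2: 50 mM KPO4 pH 7.4, 2.5 μM substrate, 1 mM NADPH. CYP4A11: 100 mM Tris-HCl pH 7.5, 60 μM substrate, NADP+/glucose 6-phosphate/G6PDH regenerating system, 3.3 mM MgCl2.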

[2] = target: human CYP4A11 (Homo sapiens (Human), UniProt Q02928); experiment: Inhibition test against 20-HETE producing enzyme CYP4A11 (luciferine derivative, luminescence); assay type: biochemical
Sequence of human CYP4A11 (Q02928 5-519): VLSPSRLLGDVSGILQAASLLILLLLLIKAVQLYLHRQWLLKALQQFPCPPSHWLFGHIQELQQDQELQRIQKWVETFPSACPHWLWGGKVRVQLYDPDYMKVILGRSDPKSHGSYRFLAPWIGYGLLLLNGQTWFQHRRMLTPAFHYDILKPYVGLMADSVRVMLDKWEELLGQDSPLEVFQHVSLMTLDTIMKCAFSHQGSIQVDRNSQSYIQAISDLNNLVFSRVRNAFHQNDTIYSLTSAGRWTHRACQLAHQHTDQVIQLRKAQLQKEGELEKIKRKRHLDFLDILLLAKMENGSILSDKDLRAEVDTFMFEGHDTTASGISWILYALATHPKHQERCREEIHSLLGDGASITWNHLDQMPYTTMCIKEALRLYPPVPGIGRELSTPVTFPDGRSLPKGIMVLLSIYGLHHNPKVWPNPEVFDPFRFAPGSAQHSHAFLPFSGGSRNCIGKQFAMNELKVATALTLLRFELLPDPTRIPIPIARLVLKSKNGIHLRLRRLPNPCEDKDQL
Outline: as §1

[3] = E. coli membrane fraction expressing human CYP4F2, 2.5 μM luciferine derivative, room temperature 60 minutes
[4] = E. coli membrane fraction expressing human CYP4A11, 60 μM luciferine derivative, room temperature 60 minutes
[5] = human CYP4F2, luciferine derivative, luminescence
[6] = human CYP4A11, luciferine derivative, luminescence

Sequence of human CYP4F2 (P78329 5-520): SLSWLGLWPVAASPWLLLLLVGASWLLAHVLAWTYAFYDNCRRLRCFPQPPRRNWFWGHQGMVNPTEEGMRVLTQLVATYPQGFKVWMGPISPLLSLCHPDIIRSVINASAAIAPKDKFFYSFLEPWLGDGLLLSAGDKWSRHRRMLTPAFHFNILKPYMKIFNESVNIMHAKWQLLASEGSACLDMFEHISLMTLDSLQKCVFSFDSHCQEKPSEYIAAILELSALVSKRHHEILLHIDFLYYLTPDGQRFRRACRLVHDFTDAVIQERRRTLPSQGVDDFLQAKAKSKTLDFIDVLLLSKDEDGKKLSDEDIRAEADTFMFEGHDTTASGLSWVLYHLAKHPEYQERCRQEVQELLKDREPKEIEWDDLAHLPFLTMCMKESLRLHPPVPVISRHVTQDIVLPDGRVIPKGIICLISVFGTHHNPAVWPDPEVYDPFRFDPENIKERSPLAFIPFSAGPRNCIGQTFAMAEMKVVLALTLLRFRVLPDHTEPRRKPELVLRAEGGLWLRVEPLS

Compound | IC50 [1, 3] [nM] | IC50 [2, 4] [nM] | IC50 [1, 5] [nM] | IC50 [2, 6] [nM]
CNS(=O)(=O)c1cccc(CN(C)S(=O)(=O)c2cccc(COc3ccc(-c4ccn[nH]4)nc3)c2)c1 [Example 23-2, N-Methyl-3-[[methyl-[3-[[6-(1-H-pyrazol-5-yl)-3-pyridinyl]oxymethyl]phenyl]sulfonylamino]methyl]benzenesulfonamide] | 3 | 13 | – | –
O=C(O)c1cccc(OCCOc2ccc(-c3ccn[nH]3)nc2)c1 [Example 18-6] | 6100 | 310 | – | –
O=C(O)COCCCCCCCOc1ccc(-c2ccn[nH]2)nc1 [Example 71-3] | – | – | 320 | 230
O=C(CCc1cccc(COc2ccc(-c3ccn[nH]3)nc2)c1)N1CC(O)C1 [Example 43-10] | – | – | 190 | 140
O=C(O)C1(OCCCCCCCOc2ccc(-c3ccn[nH]3)nc2)CC1 [Example 71-5] | – | – | 39 | 96
CNC(=O)C(C)(C)c1cccc(COc2ccc(-c3ccn[nH]3)nc2)c1 [Example 42-24] | – | – | 150 | 39
O=C(O)C12CCC(COc3cnc(-c4ccn[nH]4)c(F)c3)(CC1)CC2 [Example 1-21] | 31000 | 29 | – | –
CC(C)(CCc1cc(COc2ccc(-c3ccn[nH]3)nc2)ccn1)C(=O)O [Example 1-38] | 1200 | 42 | – | –
O=C(O)C1(OCCCCCCCOc2ccc(-c3ccn[nH]3)nc2)CCCC1 [Example 2-3] | 75 | 99 | – | –
O=C(O)C12CCC(COc3ccc(-c4ccns4)nc3)(CC1)CC2 [Example 39-2] | 22000 | 18 | – | –
O=C(O)Cc1ccc(CCCOc2ccc(-c3ccn[nH]3)nc2)cc1 [Example 8-8] | 1100 | 260 | – | –
O=C(O)C1(CCCCCCOc2ccc(-c3ccn[nH]3)nc2)CCCC1 [Example 1-46, 1-[6-[[6-(1H-Pyrazol-5-yl)-3-pyridinyl]oxy]hexyl]-1-cyclopentanecarboxylic Acid] | 370 | 66 | – | –
c1cc(-c2ccc(OCCCCCc3nnn[nH]3)cn2)[nH]n1 [Example 62-1, 2-(1H-Pyrazol-5-yl)-5-[5-(1H-tetrazol-5-yl)pentoxy]pyridine] | 3500 | 28 | – | –
O=C(O)c1ccc(CCCOc2ccc(-c3ccn[nH]3)nc2)cc1 [Example 1-8] | 2600 | 78 | – | –
O=C(O)Cn1cc(CCCOc2ccc(-c3ccn[nH]3)nc2)nn1 [Example 35-1, 2-[4-[3-[[6-(1H-Pyrazol-5-yl)-3-pyridinyl]oxy]propyl]-1-triazolyl]acetic Acid] | 20000 | 3000 | – | –
O=C(CCCCCCOc1ccc(-c2ccn[nH]2)nc1)NC1(C(=O)O)CCCC1 [Example 50-1, 1-[[1-Oxo-7-[[6-(1H-pyrazol-5-yl)-3-pyridinyl]oxy]heptyl]amino]-1-cyclopentanecarboxylic Acid] | 2800 | 75 | – | –
O=C(O)c1cc(COc2ccc(-c3n[nH]cc3Cl)nc2)ccn1 [Example 1-41, 4-[[6-(4-Chloro-1H-pyrazol-3-yl)-3-pyridinyl]oxymethyl]-2-pyridinecarboxylic Acid] | 3700 | 97 | – | –
CC(C)(Oc1cccc(CCOc2ccc(-c3ccn[nH]3)nc2)n1)C(=O)O [Example 71-36] | – | – | > 50000 | 260
CS(=O)(=O)NC(=O)CCCCCOc1ccc(-c2ccn[nH]2)nc1 [Example 54-1, N-Methylsulfonyl-6-[[6-(1H-pyrazol-5-yl)-3-pyridinyl]oxy]hexanamide] | 21000 | 70 | – | –
CC(C)(CC(=O)N1CCC(CCCOc2ccc(-c3ccn[nH]3)nc2)CC1)C(=O)O [Example 1-31] | 160 | 1700 | – | –

Compound | IC50 [1, 3] [nM] | IC50 [2, 4] [nM] | IC50 [1, 5] [nM] | IC50 [2, 6] [nM]
O=C(CCc1cccc(COc2cnc(-c3ccn[nH]3)c(F)c2)c1)N1CC(O)C1 [Example 42-19] | – | – | 47 | 110
O=C(O)C1CCCC(c2cccc(COc3ccc(-c4ccn[nH]4)nc3)c2)C1 (stereo not drawn) [Example 8-3] | 860 | 28 | – | –
CC(C)(CCOc1ccc(-c2ccn[nH]2)nc1)CCC(=O)O [Example 7-1, 4,4-Dimethyl-6-[[6-(1H-pyrazol-5-yl)-3-pyridinyl]oxy]hexanoic Acid] | 48000 | 34 | – | –
CC(=O)N1CC(O)(c2cccc(COc3ccc(-c4ccn[nH]4)nc3)c2)C1 [Example 52-2] | 50 | 520 | – | –
O=C(O)CCCCCCCOc1ccc(-c2ccn[nH]2)nc1 [Example 1-48] | 2000 | 44 | – | –
O=C(O)Cc1cccc(CCCOc2ccc(-c3ccn[nH]3)nc2)c1 [Example 32-1, 2-[3-[3-[[6-(1H-Pyrazol-5-yl)-3-pyridinyl]oxy]propyl]phenyl]acetic Acid] | 430 | 33 | – | –
CN(C)C(=O)[C@H]1C[C@](O)(c2cccc(COc3ccc(-c4ccn[nH]4)nc3)c2)C1 [Example 42-21] | – | – | 28 | 430
CC(C)(NS(=O)(=O)c1cccc(COc2ccc(-c3ccn[nH]3)nc2)c1)C(=O)O [Example 75-1] | – | – | 9300 | 21
O=C(O)Cn1cc(-c2cccc(COc3ccc(-c4ccn[nH]4)nc3)c2)ccc1=O [Example 1-25] | 1600 | 120 | – | –
O=C(N[C@H](Cc1ccccc1)C(=O)O)c1cccc(COc2ccc(-c3ccn[nH]3)nc2)c1 [Example 45-12] | – | – | 890 | 220
O=C(O)[C@H]1CCc2cc(CCOc3ccc(-c4ccn[nH]4)nc3)ccc2O1 [Example 71-8-2] | – | – | 560 | 48
OC1(c2cccc(COc3ccc(-c4ccn[nH]4)nc3)c2)CCC1 [Example 27-3] | 350 | 120 | – | –
O=C(O)C1CC1c1cccc(COc2ccc(-c3ccn[nH]3)nc2)c1 (single isomer, unassigned) [Example 26-1, trans-2-[3-[[6-(1H-Pyrazol-5-yl)-3-pyridinyl]oxymethyl]phenyl]-1-cyclopropanecarboxylic Acid] | 400 | 20 | – | –
O=C(O)Cc1ccccc1COc1ccc(-c2ccn[nH]2)nc1 [Example 21-2] | > 50000 | 3800 | – | –
CC(C)(CCNC(=O)N1CCC[C@@H](COc2ccc(-c3ccn[nH]3)nc2)C1)C(=O)O [Example 55-1, 2,2-Dimethyl-4-[[oxo-[(3R)-3-[[6-(1H-pyrazol-5-yl)-3-pyridinyl]oxymethyl]-1-piperidinyl]methyl]amino]butanoic Acid] | 6500 | 200 | – | –
Cc1cn[nH]c1-c1ccc(OCC23CCC(C(=O)O)(CC2)CC3)cn1 [Example 38-3, 1-[[6-(4-Methyl-1H-pyrazol-5-yl)-3-pyridinyl]oxymethyl]-4-bicyclo[2.2.2]octanecarboxylic Acid] | 17000 | 35 | – | –
CC(C)(CCCCCCOc1ccc(-c2ccn[nH]2)nc1)C(=O)O [Example 1-61, 2,2-Dimethyl-8-[[6-(1H-pyrazol-5-yl)-3-pyridinyl]oxy]octanoic Acid] | 1900 | 26 | – | –
O=C(O)CCC(=O)N1CCC(COc2ccc(-c3ccn[nH]3)nc2)CC1 [Example 48-1, 4-Oxo-4-[4-[[6-(1H-pyrazol-5-yl)-3-pyridinyl]oxymethyl]-1-piperidinyl]butanoic Acid] | 11000 | 620 | – | –
O=C(O)c1cccc(CCCCOc2ccc(-c3ccn[nH]3)nc2)n1 [Example 29-5] | 690 | 29 | – | –

— US11365192B2, “Pyridine compound substituted with azole” (TAISHO PHARMACEUTICAL CO., LTD., priority 2017, dated 2022)
